Measured values published in patent publication US20210123016A1, “REGULATORS OF HUMAN PLURIPOTENT STEM CELLS AND USES THEREOF” (Novartis AG, priority 2018, published 2021).
Entries after “also recorded” stand apart in the source; their conditions may differ.

Tests used:
[1] = system: iCas9 H1-hESCs; test: Assaying survival without ROCK inhibitor (single cell dissociation and replating, IncuCyte confluence / time-lapse); type: cell-based, human; conditions: control and PAWR knockout hPSCs, in the presence of thiazovivin (ROCK inhibitor)
Procedure: Control and mutant iCas9 H1-hESCs were dissociated with accutase for 10 minutes. Flowmi 40-micron cell strainers (BEL-ART H13680-0040) were used to ensure a uniform single cell suspension prior to replating cells. Cells were plated at a density of 10,500 to 21,000 cells/cm^2 plus or minus thiazovivin (ROCK inhibitor). Timelapse images were taken in 1 hr intervals using IncuCyte zoom (Essen Biosciences). The confluence processing analysis tool (IncuCyte Zoom Software) calculated confluency for each sample.

[2] = system: iCas9 H1-hESCs; test: Phalloidin stain of filamentous (F-) ACTIN in fixed cells after dissociation; type: cell-based, human; conditions: thiazovivin treated cells after dissociation, stain at 3.5 h
Procedure: Immunofluorescence staining of fixed cells was performed as described by Ihry et. al., 2017. Protein lysates were made by vortexing cell pellets in […] (Thermo Scientific 89901) supplemented with Halt protease inhibitor cocktail (Thermo Scientific 78430) and phosphatase inhibitors (Thermo Scientific 1862495). Samples were incubated at 4 C for 10 minutes before centrifugation at 14,000×g for 10 minutes at 4 C. Supernatants were transferred to new tubes and quantified using the BCA protein assay kit (Thermo Scientific 23225) and a SpectraMax Paradigm (Molecular Devices) plate reader. Samples were prepared with NuPAGE LDS sample buffer 4× (Invitrogen NP0008) and NuPAGE sample reducing agent (Invitrogen NP0009) and heated for 10 minutes at 70 C. Chameleon Duo Pre-stained Protein Ladder (LiCOR P/N 928-60000) was loaded alongside 10 ug of protein per sample on a NuPAGE 4-12% Bis-Tris Protein Gels, 1.5 mm, 10-well (Invitrogen NP0335BOX). Gel electrophoresis was performed at 150 V for 1 hr in NuPAGE MOPS SDS Running buffer (20×) (Invitrogen NP0001) using a XCell SureLock Mini-Cell (Thermo Scientific E10002). Transfer was performed using an iBlot 2 dry blotting system (Thermo IB21002 and IB23002) as described by manufacturer. Blots were blocked in TBS blocking buffer (LiCOR 927-50000) for 1 hour at room temperature. […]

Structure (SMILES): O=C(NCc1ccccc1)c1csc(Nc2ccncn2)n1 [thiazovivin]
- survival after single cell dissociation and replating [1]: survive replating; also recorded: survived as single cells
- cytoskeletal organization (F-ACTIN, phalloidin) [2]: increased surface area, a fanned-out shape with actin stress fibers, and a large circular adhesion belt-like structure
